Activity calls are given as the source filed them. The calls are words filed in the database; no cut-off is given here. Some results are limits rather than exact numbers.

Experiment [1] concerns the target T1, Cell division protein FtsZ (Escherichia coli K-12, UniProt P0A9A6).
T1 sequence (P0A9A6 whole entry): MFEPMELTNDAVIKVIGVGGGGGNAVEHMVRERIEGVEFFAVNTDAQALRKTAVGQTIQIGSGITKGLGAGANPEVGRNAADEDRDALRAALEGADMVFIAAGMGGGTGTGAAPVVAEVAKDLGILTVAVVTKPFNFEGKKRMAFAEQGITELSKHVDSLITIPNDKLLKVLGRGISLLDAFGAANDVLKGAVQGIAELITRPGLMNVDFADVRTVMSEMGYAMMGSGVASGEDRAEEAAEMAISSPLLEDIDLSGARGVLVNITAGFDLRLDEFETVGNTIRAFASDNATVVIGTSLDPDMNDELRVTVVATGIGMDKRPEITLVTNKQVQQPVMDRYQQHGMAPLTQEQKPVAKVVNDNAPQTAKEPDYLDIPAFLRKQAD
The experiment can be described thus: Inhibition of Escherichia coli FtsZ GTPase activity after 5 mins by enzyme-coupled inhibition assay.

For experiment [2], the target named is T2, Cell division protein FtsZ (Bacillus subtilis (strain 168), UniProt P17865).
T2 sequence (P17865 whole entry): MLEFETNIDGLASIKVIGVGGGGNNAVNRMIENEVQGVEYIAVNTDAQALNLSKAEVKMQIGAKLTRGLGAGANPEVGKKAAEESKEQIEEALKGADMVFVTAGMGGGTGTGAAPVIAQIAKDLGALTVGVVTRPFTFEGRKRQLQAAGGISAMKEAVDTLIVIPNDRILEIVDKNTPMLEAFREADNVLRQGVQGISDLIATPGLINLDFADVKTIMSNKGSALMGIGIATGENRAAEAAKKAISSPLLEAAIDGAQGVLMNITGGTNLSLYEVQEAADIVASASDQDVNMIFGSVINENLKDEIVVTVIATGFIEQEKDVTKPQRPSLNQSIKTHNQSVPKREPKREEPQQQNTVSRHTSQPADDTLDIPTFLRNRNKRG
The experiment can be described thus: Inhibition of Bacillus subtilis FtsZ GTPase activity after 5 mins by enzyme-coupled inhibition assay.

The target in experiment [3] is T3, Cell division protein FtsZ (Staphylococcus aureus, UniProt P0A031).
T3 sequence (P0A031 whole entry): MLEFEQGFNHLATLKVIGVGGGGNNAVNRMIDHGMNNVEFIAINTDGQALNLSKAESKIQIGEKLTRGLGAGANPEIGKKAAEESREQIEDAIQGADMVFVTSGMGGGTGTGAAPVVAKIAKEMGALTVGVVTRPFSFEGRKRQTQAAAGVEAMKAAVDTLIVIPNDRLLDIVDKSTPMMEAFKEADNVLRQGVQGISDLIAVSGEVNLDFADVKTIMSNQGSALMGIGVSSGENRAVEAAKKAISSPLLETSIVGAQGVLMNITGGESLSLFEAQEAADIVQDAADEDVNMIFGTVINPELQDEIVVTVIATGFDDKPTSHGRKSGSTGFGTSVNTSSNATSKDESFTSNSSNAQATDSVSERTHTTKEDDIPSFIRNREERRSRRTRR
The experiment can be described thus: Activation of Staphylococcus aureus FtsZ GTPase activity.

For experiment [4], the target named is T4, Cell division protein FtsZ (Escherichia coli K-12) (UniProt P0A9A6).
T4 sequence (whole entry): T1 sequence (P0A9A6 whole entry)
As to the kind of experiment: Competitive inhibition of Escherichia coli FtsZ GTPase activity after 5 mins by enzyme-coupled inhibition assay in presence of 10 to 1250 uM GTP.

Experiment [5] can be described thus: Inhibition of bacterial FtsZ GTPase activity (unknown origin).

What is called IC50 is the point on the concentration scale where inhibition reaches its midpoint. Turning to `CN(C)CCNc1nc(/C=C/c2ccc(I)cc2)nc2cc3ccccc3cc12`, the 50% inhibitory concentration (IC50) in experiment [1] is 24 µM. As for `CN(C)CCNc1nc(/C=C/c2ccc(Cl)cc2)nc2ccc(Br)cc12`, in experiment [1], inhibition was half-maximal at 30 µM (IC50). On the same count and under the same terms, next, `CN(C)CCOc1nc(/C=C/c2ccc(Cl)cc2)nc2cc3ccccc3cc12`: 26 µM; `CN(C)CCNc1nc(/C=C/c2ccc(Cl)cc2)nc2ccc(-c3ccc4ccccc4c3)cc12`: 58 µM; `Cc1ccc2nc(/C=C/c3ccc(Cl)cc3)nc(NCCN)c2c1`: 27 µM. For `CN(C)CCCNc1nc(/C=C/c2ccc(Cl)cc2)nc2cc3ccccc3cc12`, the IC50 in experiment [1] stood at 65 µM. In experiment [2], `Cc1ccc2nc(-c3ccc(Cl)cc3)nc(NCCN(C)C)c2c1` had an IC50 of over 128 µM.

`Cc1ccc2nc(/C=C/c3ccc(C(F)(F)F)cc3)nc(NCCN(C)C)c2c1` registered a half-inhibitory concentration (IC50) in experiment [2] of over 128 µM. The same measure, in the same setting: next, `Cc1ccc2nc(-c3cc4ccccc4o3)nc(NCCN(C)C)c2c1`: over 128 µM; `Cc1ccc2nc(/C=C/c3ccc(I)cc3)nc(NCCN(C)C)c2c1`: over 128 µM.

`CN(C)CCNc1nc(/C=C/c2ccc(Cl)cc2)nc2cc(C(F)(F)F)ccc12` came in with an IC50 in experiment [1] of over 128 µM.

With `CN(C)CCNc1nc(/C=C/c2ccc(Cl)cc2)nc2ccccc12`, in experiment [1], the half-inhibitory concentration (IC50) was over 128 µM.

Consider `NCCNc1nc(/C=C/c2ccc(Cl)cc2)nc2cc3ccccc3cc12`, for which half-maximal inhibition in experiment [1] (IC50) required 9 µM. In experiment [1], `Cc1ccc2nc(/C=C/c3ccc(Cl)cc3)nc(NCCNC(=O)OC(C)(C)C)c2c1` displayed a half-inhibitory concentration (IC50) of over 128 µM. For `Cc1ccc2nc(NCc3ccccc3)nc(NCCN(C)C)c2c1`, the IC50 in experiment [2] is over 128 µM. `Cc1ccc2nc(C(=O)Nc3ccc(Cl)cc3)nc(NCCN)c2c1` gave an IC50 in experiment [1] of over 128 µM. Broadly, the EC50 is the midpoint of the concentration-response curve. A low value points to higher potency in that assay. In experiment [3], `NC(=O)c1c(F)ccc(OCc2nc3cc(Cl)cnc3s2)c1F` came in with an EC50 of 4 µM. As for `CN(C)CCNc1nc(/C=C/c2ccc(Cl)cc2)nc2ccc(-c3ccncc3)cc12`, the concentration for half-maximal inhibition (IC50) in experiment [1] is 30 µM. Same read-out and setting: under `CN(C)CCNc1nc(/C=C/c2ccc(Cl)cc2)nc2ccc(C(=O)c3ccccc3)cc12` stands 85 µM. On to `COc1ccc(-c2nc(NCCN(C)C)c3cc(C)ccc3n2)cc1`, for which the IC50 in experiment [2] was over 128 µM. For `COc1cc2nc(/C=C/c3ccc(Cl)cc3)nc(NCCN(C)C)c2cc1OC`, in experiment [1], the IC50 is 100 µM.

As to `CC(C)(C)OC(=O)NCCNc1nc(/C=C/c2ccc(Cl)cc2)nc2cc3ccccc3cc12`, the 50% inhibitory concentration (IC50) in experiment [1] was over 128 µM. Same read-out and setting: next, `C[N+](C)(C)CCNc1nc(/C=C/c2ccc(Cl)cc2)nc2cc3ccccc3cc12`: 52 µM; `Cc1ccc2nc(C(=O)NCc3ccc(Cl)cc3)nc(NCCN(C)C)c2c1`: over 128 µM; `CN(C)CCNc1nc(/C=C/c2ccc(Cl)cc2)nc2ccc(I)cc12`: 95 µM. In the case of `CCN(CC)CCNc1nc(/C=C/c2ccc(Cl)cc2)nc2cc3ccccc3cc12`, the inhibition entry in experiment [4] was “inactive”. The molecule further yielded a half-inhibitory concentration (IC50) in experiment [5] of 24 µM. The molecule `CN(C)CCNc1nc(/C=C/c2ccc(Cl)cc2)nc2ccc(C3=CCCCC3)cc12` displayed an IC50 in experiment [1] of 49 µM. The same measure, in the same setting: under `Cc1ccc2nc(/C=C/c3ccc(Cl)cc3)nc(NCCN(C)C)c2c1` stands 24 µM; under `CSCCNc1nc(/C=C/c2ccc(Cl)cc2)nc2cc3ccccc3cc12`, over 128 µM. Same read-out and setting: under `Cc1cccc2nc(/C=C/c3ccc(Cl)cc3)nc(NCCN(C)C)c12` stands over 128 µM.

Consider `Cc1ccc2nc(-c3ccc4ccccc4c3)nc(NCCN(C)C)c2c1`, for which the half-maximal inhibitory concentration (IC50) in experiment [2] is over 128 µM. Molecule `CC(=O)NCCNc1nc(/C=C/c2ccc(Cl)cc2)nc2cc3ccccc3cc12` registered an IC50 in experiment [1] of over 128 µM. `Cc1ccc2nc(NCc3ccc(Cl)cc3)nc(NCCN(C)C)c2c1` had an IC50 in experiment [2] of over 128 µM. Still for that read-out and setting: under `Cc1ccc2nc(N)nc(NCCN(C)C)c2c1` stands over 128 µM.

For `COCCNc1nc(/C=C/c2ccc(Cl)cc2)nc2cc3ccccc3cc12`, in experiment [1], the 50% inhibitory concentration (IC50) is over 128 µM.

`CC(C)(C)OC(=O)CNc1nc(/C=C/c2ccc(Cl)cc2)nc2cc3ccccc3cc12` showed an IC50 in experiment [1] of over 128 µM. Regarding `Cc1ccc2nc(/C=C/c3ccc(C(C)(C)C)cc3)nc(NCCN(C)C)c2c1`, in experiment [2], the 50% inhibitory concentration (IC50) was over 128 µM. Same read-out and setting: under `Cc1ccc2nc(-c3cccs3)nc(NCCN(C)C)c2c1` stands over 128 µM. In experiment [5], `CN(C)CCNc1nc(/C=C/c2ccc(Cl)cc2)nc2cc3ccccc3cc12` came in with an IC50 of 12 µM.

`CN(C)CCNc1nc(/C=C/c2ccc(Cl)cc2)nc2ccc(-c3ccccc3)cc12` showed a half-maximal inhibitory concentration (IC50) in experiment [1] of 28 µM. Still for that read-out and setting: next, `COCCNc1nc(/C=C/c2ccc(Cl)cc2)nc2ccc(C)cc12`: over 128 µM. The same measure, in the same setting: next, `CN(C)CCNc1nc(/C=C/c2ccc(N=[N+]=[N-])cc2)nc2cc3ccccc3cc12`: 14 µM. Still for that read-out and setting: under `CN(C)CCNc1nc(/C=C/c2ccc(Cl)cc2)nc2ccc(-c3cccs3)cc12` stands over 128 µM. In experiment [1], `COCCCNc1nc(/C=C/c2ccc(Cl)cc2)nc2cc3ccccc3cc12` had an IC50 of over 128 µM.

Turning to `Cc1ccc2nc(/C=C/c3ccc(Br)cc3)nc(NCCN(C)C)c2c1`, the IC50 in experiment [2] was over 128 µM.
